Measured values reported in PMC9317670, “Temporal and Wash-Out Studies Identify Medicines for Malaria Venture Pathogen Box Compounds with Fast-Acting Activity against Both Trypanosoma cruzi and Trypanosoma brucei” (Microorganisms, 2022).
Read-outs that look alike come from different tables or passages of the source.

Key:
HEK293 cells = assay: HEK293 cytotoxicity assay; format: cell-based, human; conditions: HEK293, 72 h; NA = not active; highest dose 79 µM unless given
T. cruzi and T.b. brucei = assay: Speed of action and cidality classification from temporal and wash off assays; format: cell-based, Trypanosoma cruzi, Trypanosoma brucei brucei; conditions: for Speed of Action (FA/SA): TBB = T.b. brucei
T.b. brucei [1] = assay: T.b. brucei temporal viability (time-kill) assay, 24 h, PrestoBlue; format: cell-based, Trypanosoma brucei brucei; conditions: for Emax: read-out: Emax 24 h T.b. brucei (converted); for IC50: read-out: IC50 24 h T.b. brucei
Method: Time-kill assays was undertaken as previously described, using the REDOX reagent PrestoBlue® [24]. […] Control compounds were added at the same concentrations at outlined for the resazurin-based assays.

T.b. brucei [2] = assay: T.b. brucei temporal viability (time-kill) assay, 48 h, PrestoBlue; format: cell-based, Trypanosoma brucei brucei; conditions: for Emax: read-out: Emax 48 h T.b. brucei (converted); for IC50: read-out: IC50 48 h T.b. brucei
[3] = test system: T.b. brucei bloodstream 427 strain parasites; assay: T.b. brucei 72 h REDOX-based (resazurin) viability assay; format: cell-based, Trypanosoma brucei brucei; conditions: for Emax / IC50 / Emax % (T.b. brucei): 72 h; for SI (T.b. brucei) HEK: selectivity index in relation to HEK293 cells; for SI (T.b. brucei) (HEP): selectivity index in relation to HEPG2 cells
[4] = test system: T. cruzi Tulahuen strain parasites in 3T3 host cells; assay: T. cruzi 48 h image-based assay; format: cell-based, Trypanosoma cruzi; conditions: for Emax % (T. cruzi) / IC50 / Emax: 48 h; for IC50: read-out: IC50 (T. cruzi); for SI (T. cruzi) 3T3: selectivity index in relation to 3T3 host cells, highest dose 3T3 73 µM; for SI (T. cruzi) HEK: selectivity index in relation to HEK293 cells; for SI (T. cruzi) (HEP): selectivity index in relation to HEPG2 cells; for Emax: read-out: Emax % (T. cruzi) (converted)
T. cruzi [5] = assay: T. cruzi compound wash off assay (48 h with compound, wash off, 72 h without); format: cell-based, Trypanosoma cruzi; conditions: T. cruzi; for IC50: read-out: IC50 Wash Off; for Fold Change of IC50, wash off vs 48 h: IC50 from 48 h incubation to IC50 following wash off and further 72 h
T. cruzi [6] = assay: T. cruzi temporal image-based assay, 24 h exposure; format: cell-based, Trypanosoma cruzi; conditions: for IC50: read-out: IC50 24 h T. cruzi
[7] = 48 h incubation, wash off, further 72 h
[8] = Trypanosoma cruzi, NA = not active at given concentration
[9] = Trypanosoma cruzi, 48 h incubation, wash off, further 72 h

| Compound | Speed of Action (FA/SA) (T. cruzi and T.b. brucei; TC = T. cruzi) | Emax (T.b. brucei [1]; Trypanosoma brucei) [%] | IC50 (T.b. brucei [1]; Trypanosoma brucei) [nM] | Emax (T.b. brucei [2]; Trypanosoma brucei) [%] | IC50 (T.b. brucei [2]; Trypanosoma brucei) [nM] | Emax ([3]; Trypanosoma brucei) [%] | IC50 ([3]; Trypanosoma brucei) [nM] | SI (T.b. brucei) HEK [3] | IC50 (HEK293 cells) [nM] | Emax % (T. cruzi) [4] [%] | IC50 [4] [nM] | SI (T. cruzi) 3T3 [4] | SI (T. cruzi) HEK [4] | Emax % (T.b. brucei) [3] [%] | IC50 [3] [nM] | Fold Change of IC50, wash off vs 48 h (T. cruzi [5]) [fold] | IC50 (T. cruzi [5]; [9]) [nM] | Emax ([4]; Trypanosoma cruzi, TULAHUEN) [%] | IC50 ([4]; Trypanosoma cruzi, TULAHUEN) [nM] | also measured |
| --- | --- | --- | --- | --- | --- | --- | --- | --- | --- | --- | --- | --- | --- | --- | --- | --- | --- | --- | --- | --- |
| C[C@@H]1[C@H](O)[C@@H](C)/C=C/C=C/C=C/C=C/C=C/C=C/C=C/[C@H](O[C@@H]2O[C@H](C)[C@@H](O)[C@H](N)[C@@H]2O)C[C@@H]2O[C@](O)(C[C@@H](O)C[C@@H](O)[C@H](O)CC[C@@H](O)C[C@@H](O)CC(=O)O[C@H]1C)C[C@H](O)[C@H]2C(=O)O [Amphotericin B, reference compound] | FA (Fast-acting (FA) = IC50 value can be determined following 24 h incubation, <10-fold difference in the IC50 value from 24 to 72 h) | 100 | 880 ± 163 | 100 | 260 ± 1.6 | 100 | 1500 ± 88 | >2.6 | – | – | – | – | – | – | – | – | – | – | – | IC50 HEK (HEK293 cells): NA at 4.0 µM (NT) |
| N=C(N)c1ccc(/N=N/Nc2ccc(C(=N)N)cc2)cc1 [Diminazene aceturate, reference compound] | FA (Fast-acting (FA) = IC50 value can be determined following 24 h incubation, <10-fold difference in the IC50 value from 24 to 72 h) | 99 | 210 ± 58 | 100 | 70 ± 27 | 100 | 37 ± 0.41 | >1027 | – | – | – | – | – | – | – | – | – | – | – | IC50 HEK (HEK293 cells): NA at 38 µM (NT) |
| CN1CCC(NCc2cccc(-c3ccc(S(=O)(=O)NCc4ccccc4)cc3)c2)CC1 [MMV 22029] | – | – | – | – | – | – | – | 5.6 | 8100 ± 54 | 100 | 8200 ± 690 | 1.2 | 1.0 (NT) | 99 | 1500 ± 59 | – | – | – | – | SI (T. cruzi) HEK ([4]; listed as MMV022029): < 10; SI (T.b. brucei) HEK ([3]; listed as MMV022029): < 10 |
| O=C(Nc1ccc(N2CCNCC2)cc1)c1ccn2ncc(-c3cccc(Cl)c3)c2n1 [MMV 22478] | – | – | – | – | – | – | – | 8.0 | 12000 ± 390 | 100 | 5900 ± 1300 | 1.04 | 2.03 (NT) | 98 | 1500 ± 180 | – | – | – | – | SI (T. cruzi) HEK ([4]; listed as MMV022478): < 10; SI (T.b. brucei) HEK ([3]; listed as MMV022478): < 10 |
| c1ccc(Oc2ccc(-c3cc(N4CCNCC4)[nH]n3)cc2)cc1 [MMV 687706] | – | – | – | – | – | – | – | 7.4 | 16200 ± 5200 | 99 | 11000 ± 205 | >6.6 | 1.5 (NT) | 99 | 2200 ± 2.8 | – | – | – | – | – |
| CN1CCN(S(=O)(=O)c2ccc(-c3ccc4c(Nc5ncc(Cl)cn5)ccnc4c3)cc2)CC1 [MMV 688283] | SA (TC) | – | – | – | – | – | – | >10 (>10) | – | 100 | 6600 ± 1200 | >11 | >12 (>12) | 99 | 7600 ± 270 | 1.2 | – | – | – | Emax 24 h T.b. brucei (T.b. brucei [1]): 94%; IC50 (T.b. brucei [1]): 7800 ± 320 nM; Emax 48 h T.b. brucei (T.b. brucei [2]): 96%; IC50 (T.b. brucei [2]): 6200 ± 450 nM; Emax Wash Off (T. cruzi [5]; [7]): 100%; IC50 (T. cruzi [5]; [7]): 7600 ± 1500 nM; Emax % (T. cruzi) ([4]; listed as MMV688283): > 95%; SI (T. cruzi) (HEP) [4]: >12 (>12); SI (T.b. brucei) (HEP) [3]: >10 (>10) |
| N=C(N)c1ccc(-c2cc(-c3ccccc3)on2)cc1 [MMV 688514] | – | – | – | – | – | – | – | 6.0 | 9100 ± 460 | 100 | 4900 ± 160 | 2.7 | 1.9 (NT) | 99 | 1500 ± 27 | – | – | – | – | SI (T. cruzi) HEK ([4]; listed as MMV688514): < 10; SI (T.b. brucei) HEK ([3]; listed as MMV688514): < 10 |
| CC1CCCCN1C(=O)NCCc1coc(-c2ccc(F)cc2)n1 (stereo not shown) [MMV 688797] | FA (Fast-acting (FA) = IC50 value can be determined following 24 h incubation, <10-fold difference in the IC50 value from 24 to 72 h) | 99 | 150 ± 29 | 99 | 100 ± 6.2 | 99 | 97 ± 2.1 | >814 (>814) | – | – | – | >143 | >154 (>154) | – | – | – | 380 ± 56 | 100 | 510 ± 110 | Emax (T. cruzi [6]; Trypanosoma cruzi): 86%; IC50 (T. cruzi [6]; [8]): 890 ± 135 nM; Speed of Action (Table 5) (T. cruzi and T.b. brucei; prioritised compounds, Fast/Slow): Fast; SI (T. cruzi) (HEP) [4]: >154 (>154); SI (T.b. brucei) (HEP) [3]: >814 (>814) |
| CC1CS(=O)(=O)CCN1/N=C/c1ccc([N+](=O)[O-])o1 (stereo not shown) [Nifurtimox, reference compound] | FA (Fast-acting (FA) = IC50 value can be determined following 24 h incubation, <10-fold difference in the IC50 value from 24 to 72 h) | – | – | – | – | – | – | – | – | – | – | >149 | – | – | – | 0.60 | 350 ± 14 | 100 | 850 ± 48 | IC50 (T. cruzi [6]; [8]): 1030 ± 76 nM |
| CC[C@@H]([C@H](C)O)n1ncn(-c2ccc(N3CCN(c4ccc(OC[C@@H]5CO[C@@](Cn6cncn6)(c6ccc(F)cc6F)C5)cc4)CC3)cc2)c1=O [Posaconazole, reference compound] | SA (Slow-acting (SA) = IC50 value unable to be determined following 24 h incubation (no plateau of activity, or plateau of activity is <80% or IC50 value < 10 µM), or >10-fold difference in the IC50 value from 24 to 72 h) | – | – | – | – | – | – | – | – | 77 | – | >333 | – | – | – | 0.36 | 1.8 ± 0.078 | 73 | 5.5 ± 0.0041 | IC50 24 h T. cruzi (T. cruzi [6]; NA = not active at given concentration): NA at 1 µM; Cidal / Static / Not efficacious (T. cruzi and T.b. brucei; from wash off and 48 h Emax, TC = T. cruzi): Not efficacious (TC); Emax (T. cruzi [5]; [9]): 100% |
